From ChEMBL document CHEMBL1126333, “Conversion of NSAIDS into balanced dual inhibitors of cyclooxygenase and 5-lipoxygenase” (Bioorg Med Chem Lett, 1992)

Tests used:
[1] = target: T1, Polyunsaturated fatty acid 5-lipoxygenase (Rattus norvegicus, UniProt P12527); experiment: In vitro inhibitory activity against 5-lipoxygenase was determined
T1 sequence (P12527 whole entry): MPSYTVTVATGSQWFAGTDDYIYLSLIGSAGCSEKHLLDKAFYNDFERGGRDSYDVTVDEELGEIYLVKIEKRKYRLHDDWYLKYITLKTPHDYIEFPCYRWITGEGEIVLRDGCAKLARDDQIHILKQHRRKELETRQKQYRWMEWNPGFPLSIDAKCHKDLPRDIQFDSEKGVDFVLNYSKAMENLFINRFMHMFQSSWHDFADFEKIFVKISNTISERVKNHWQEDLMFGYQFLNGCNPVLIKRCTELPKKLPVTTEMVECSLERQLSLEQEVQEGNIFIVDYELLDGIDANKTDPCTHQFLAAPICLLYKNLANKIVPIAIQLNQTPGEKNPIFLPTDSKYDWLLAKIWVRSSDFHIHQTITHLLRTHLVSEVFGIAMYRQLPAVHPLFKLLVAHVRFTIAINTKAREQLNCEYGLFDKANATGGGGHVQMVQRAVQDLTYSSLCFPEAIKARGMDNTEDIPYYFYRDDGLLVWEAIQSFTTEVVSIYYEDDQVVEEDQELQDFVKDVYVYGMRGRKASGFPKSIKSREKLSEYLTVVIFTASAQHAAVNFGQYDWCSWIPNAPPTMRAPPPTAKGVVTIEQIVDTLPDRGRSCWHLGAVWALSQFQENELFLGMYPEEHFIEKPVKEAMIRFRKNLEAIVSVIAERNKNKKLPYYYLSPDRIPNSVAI

Cyclooxygenase = target: T2, Cyclooxygenase (Rattus norvegicus, UniProt P35355+Q63921); experiment: In vitro inhibitory activity against Cyclooxygenase was determined; type: protein assay
T2 sequence (P35355 whole entry): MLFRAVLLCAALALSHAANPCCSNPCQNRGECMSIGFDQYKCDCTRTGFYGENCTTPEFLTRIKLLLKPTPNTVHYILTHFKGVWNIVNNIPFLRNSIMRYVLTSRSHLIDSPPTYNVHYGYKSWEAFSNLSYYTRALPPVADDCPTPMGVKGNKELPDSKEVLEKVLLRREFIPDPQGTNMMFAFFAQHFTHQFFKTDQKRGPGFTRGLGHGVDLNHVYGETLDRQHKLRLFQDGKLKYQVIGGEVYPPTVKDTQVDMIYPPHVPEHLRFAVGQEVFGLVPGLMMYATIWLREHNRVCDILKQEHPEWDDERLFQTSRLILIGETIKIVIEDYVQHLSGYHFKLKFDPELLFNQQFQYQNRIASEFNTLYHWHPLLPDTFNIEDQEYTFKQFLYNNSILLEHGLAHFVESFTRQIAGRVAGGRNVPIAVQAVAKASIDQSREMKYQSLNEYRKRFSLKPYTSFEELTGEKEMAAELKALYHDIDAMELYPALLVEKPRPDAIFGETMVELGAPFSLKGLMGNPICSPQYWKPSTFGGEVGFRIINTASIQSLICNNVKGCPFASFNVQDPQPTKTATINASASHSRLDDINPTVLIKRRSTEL
T2 sequence (Q63921 whole entry): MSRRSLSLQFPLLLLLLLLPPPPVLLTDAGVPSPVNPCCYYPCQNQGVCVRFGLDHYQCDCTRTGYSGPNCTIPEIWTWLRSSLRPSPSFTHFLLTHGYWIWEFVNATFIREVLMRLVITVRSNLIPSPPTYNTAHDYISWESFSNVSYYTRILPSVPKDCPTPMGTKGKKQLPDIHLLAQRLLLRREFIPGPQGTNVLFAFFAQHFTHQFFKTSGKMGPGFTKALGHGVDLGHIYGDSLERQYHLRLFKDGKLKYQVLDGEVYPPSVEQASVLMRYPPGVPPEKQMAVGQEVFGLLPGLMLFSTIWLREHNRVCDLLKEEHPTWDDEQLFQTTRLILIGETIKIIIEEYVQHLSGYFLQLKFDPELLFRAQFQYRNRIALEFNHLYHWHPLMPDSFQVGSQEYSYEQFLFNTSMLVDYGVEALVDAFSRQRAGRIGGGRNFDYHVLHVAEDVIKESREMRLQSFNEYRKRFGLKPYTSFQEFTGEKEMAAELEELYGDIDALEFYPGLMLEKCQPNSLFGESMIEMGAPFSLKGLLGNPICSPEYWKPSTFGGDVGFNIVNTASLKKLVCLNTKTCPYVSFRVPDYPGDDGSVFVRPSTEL

[2] = target: Cyclooxygenase (Rattus norvegicus) (UniProt P35355+Q63921); experiment: In vitro inhibitory activity against Cyclooxygenase was determined at 16 uM; type: protein assay
[3] = target: T3, Polyunsaturated fatty acid 5-lipoxygenase (Rattus norvegicus) (UniProt P12527); experiment: In vitro inhibitory activity against 5-lipoxygenase was determined at 16 uM
T3 sequence (whole entry): T1 sequence (P12527 whole entry)

FC(F)(F)c1cccc(Nc2ncccc2-c2nnc(S)o2)c1
IC50 [1]: 990 nM | IC50 (Cyclooxygenase): 190 nM

FC(F)(F)c1cccc(Nc2ccccc2-c2n[nH]c(=S)o2)c1
IC50 (Cyclooxygenase): 270 nM

Cc1cccc(Nc2ccccc2-c2nnc(O)o2)c1C
inhibition [2]: < 40% | inhibition [3]: < 40%

Cc1ccc(Cl)c(Nc2ccccc2-c2nnc(O)o2)c1Cl
inhibition [2]: < 40% | inhibition [3]: < 40%

Cc1ccc(Cl)c(Nc2ccccc2-c2nnc(S)o2)c1Cl
IC50 (Cyclooxygenase): 700 nM

FC(F)(F)c1cccc(Nc2ccccc2-c2n[nH]c(=S)s2)c1
IC50 (Cyclooxygenase): 850 nM

Cc1ccc(Cl)c(Nc2ccccc2-c2nnc(S)s2)c1Cl
IC50 (Cyclooxygenase): 1750 nM

Oc1nnc(-c2ccccc2Nc2cccc(C(F)(F)F)c2)s1
inhibition [2]: < 40% | inhibition [3]: 100%
